Reference: paper PMC6152127, “Facile Synthesis of Novel Coumarin Derivatives, Antimicrobial Analysis, Enzyme Assay, Docking Study, ADMET Prediction and Toxicity Study” (Molecules : A Journal of Synthetic Chemistry and Natural …, 2017)
Values after ≈ are worked out from the molar mass of the structure shown.

Key:
[1] = system: Staphylococcus aureus (NCIM-2901); test: In vitro antibacterial activity, MIC; format: cell-based; details: average of three readings; for MIC: Staphylococcus aureus, NCIM2901
Protocol: (§1) The newly synthesized compounds 4a–o were screened for their in vitro antibacterial activity against the three different bacterial strains. Minimum inhibitory concentration (MIC) values for antibacterial activity were determined by standard agar method using Ampicillin as standard drug. Dimethyl sulfoxide (DMSO) was used as solvent control. […] Compound 4e bearing a 2,4-difluoro group on the phenyl ring was 48 µg/mL for E. coli, 50 µg/mL for B. subtilis and 52 µg/mL for S. aureus.
(§2) All the synthesized compounds were screened for their in vitro antifungal and antibacterial activity. The antibacterial activity was evaluated against three human pathogenic bacterial strains: Escherichia coli (NCIM-2256), Bacillus subtilis (NCIM-2063) and Staphylococcus aureus (NCIM-2901). The antifungal activity was evaluated against seven human pathogenic fungal strains: Candida albicans (NCIM-3471), Candida glabrata (NCYC-388), Fusarium oxysporum (NCIM-1332), Aspergillus fumigates (NCIM-902), Aspergillus flavus (NCIM-539), Aspergillus niger (NCIM-1196) and Cryptococcus neoformans (NCIM-576), which are often encountered clinically. Miconazole was used as standard drug. Minimum inhibitory concentration (MIC) values were determined as per CLSI guidelines. Dimethyl sulfoxide (DMSO) was used as solvent control.
(§3) All the synthesized compounds 4a–o were screened for their in vitro antibacterial activity. Minimum inhibitory concentration (MIC) values were determined using method recommended by National Committee for Clinical Laboratory Standards (NCCLS). In vitro antibacterial activities of the synthesized compounds 4a–o were tested in Nutrient Broth (NB) for bacteria by the two fold serial dilution method. Seeded broth (broth containing microbial spores) was prepared in NB from 24 h old bacterial cultures on nutrient agar (Hi-media) at 37± 1 °C. The bacterial suspension was adjusted with sterile saline to a concentration of 1× 10^−4–10^−5 C.F.U. The synthesized compounds and standard drug Ampicillin were prepared by two fold serial dilutions to obtain the required concentrations of 400, 200, 100, 50, 25, 12.5, 6.25 and 3.13 μg/mL. The tubes were incubated in BOD incubators at 37± 1 °C for bacteria. The MICs were recorded by visual observations after 24 h (for bacteria) of incubation.

[2] = system: Escherichia coli (NCIM-2256); test: In vitro antibacterial activity, MIC; format: cell-based; details: average of three readings; for MIC: Escherichia coli, NCIM2256
Protocol: as §1, §2, §3

[3] = system: Bacillus subtilis (NCIM-2063); test: In vitro antibacterial activity, MIC; format: cell-based; details: average of three readings; for MIC: Bacillus subtilis, NCIM2063
Protocol: as §1, §2, §3

[4] = system: Aspergillus niger (NCIM-1196); test: In vitro antifungal activity, MIC, agar method (CLSI); format: cell-based; details: NCIM1196, average of three readings
Protocol: (§4) The newly synthesized 3-((dicyclohexylamino)(substituted phenyl/heteryl)methyl)-4-hydroxy-2H-chromen-2-one derivatives 4a–o were screened for their in vitro antifungal activity against different yeast and filamentous fungal pathogens. […] Dimethyl sulfoxide (DMSO) was used as solvent control.
as §2, with “Miconazole was used as standard drug.” left out
(§5) Antifungal activity was determined as per CLSI (formerly, NCCLS) guidelines. […] The medium yeast nitrogen base was dissolved in phosphate buffer pH 7 and it was autoclaved at 110 °C for 10 min. With each set a growth control without the antifungal agent and solvent control DMSO were included. The fungal strains were freshly sub cultured on to Sabouraud dextrose agar (SDA) and incubated at 25 °C for 72 h. The fungal cells were suspended in sterile distilled water and diluted to get 10^5 cells/mL. Ten μL of the standardized suspension was inoculated onto the control plates and the media incorporated with the antifungal agents. The inoculated plates were incubated at 25 °C for 48 h. The readings were taken at the end of 48 h and 72 h. The MIC was the lowest concentration of drug preventing growth of macroscopically visible colonies on drug containing plates when there was visible growth on the drug free control plates.

[5] = system: Aspergillus flavus (NCIM-539); test: as above; format: cell-based; details: NCIM539, average of three readings
Protocol: as §4
as §2, with “Miconazole was used as standard drug.” left out
as §5

[6] = system: Fusarium oxysporum (NCIM-1332); test: as above; format: cell-based; details: NCIM1332, average of three readings
Protocol: as §4
as §2, with “Miconazole was used as standard drug.” left out
as §5

[7] = system: Aspergillus fumigates (NCIM-902); test: as above; format: cell-based; details: NCIM902, average of three readings
Protocol: as §4
as §2, with “Miconazole was used as standard drug.” left out
as §5

[8] = system: Candida glabrata (NCYC-388); test: as above; format: cell-based; details: Nakaseomyces glabratus; average of three readings
Protocol: as §4
as §2, with “Miconazole was used as standard drug.” left out
as §5

[9] = system: Candida albicans (NCIM-3471); test: as above; format: cell-based; details: NCIM3471, average of three readings
Protocol: as §4
as §2, with “Miconazole was used as standard drug.” left out
as §5

[10] = system: Cryptococcus neoformans (NCIM-576); test: as above; format: cell-based; details: NCIM576, average of three readings
Protocol: as §4
as §2, with “Miconazole was used as standard drug.” left out
as §5

SMILES | MIC [1] [µg/mL] | MIC [2] [µg/mL] | MIC [3] [µg/mL] | melting point [°C] | MIC [4] [µg/mL] | MIC [5] [µg/mL] | MIC [6] [µg/mL] | MIC [7] [µg/mL] | MIC [8] [µg/mL] | MIC [9] [µg/mL] | MIC [10] [µg/mL] | MIC Staphylococcus aureus [1] [µg/mL] | MIC Escherichia coli [2] [µg/mL] | MIC Bacillus subtilis [3] [µg/mL]
O=c1oc2ccccc2c(O)c1C(c1ccccc1)N(C1CCCCC1)C1CCCCC1 (stereo not drawn) [Compound 4a, 3-((Dicyclohexylamino)(phenyl)methyl)-4-hydroxy-2H-chromen-2-one] | 65 (≈ 151 µM) | 70 (≈ 162 µM) | 68 (≈ 158 µM) | 112 to 114 | 43 (≈ 99.6 µM) | 38 (≈ 88 µM) | 55 (≈ 127 µM) | 84 (≈ 195 µM) | 58 (≈ 134 µM) | 66 (≈ 153 µM) | 54 (≈ 125 µM) | – | – | –
O=c1oc2ccccc2c(O)c1C(c1ccc(Cl)cc1)N(C1CCCCC1)C1CCCCC1 (stereo not drawn) [Compound 4b, 3-((4-Chlorophenyl)(dicyclohexylamino)methyl)-4-hydroxy-2H-chromen-2-one] | 54 (≈ 116 µM) | 52 (≈ 112 µM) | 50 (≈ 107 µM) | 120 to 122 | 15 (≈ 32.2 µM) | 14 (≈ 30 µM) | 34 (≈ 73 µM) | 30 (≈ 64.4 µM) | 32 (≈ 68.7 µM) | 30 (≈ 64.4 µM) | 15 (≈ 32.2 µM) | – | – | –
O=c1oc2ccccc2c(O)c1C(c1ccc(F)cc1)N(C1CCCCC1)C1CCCCC1 (stereo not drawn) [Compound 4d, 3-((Dicyclohexylamino)(4-fluorophenyl)methyl)-4-hydroxy-2H-chromen-2-one] | 50 (≈ 111 µM) | 50 (≈ 111 µM) | 49 (≈ 109 µM) | 122 to 124 | 20 (≈ 44.5 µM) | 15 (≈ 33.4 µM) | 30 (≈ 66.7 µM) | 28 (≈ 62.3 µM) | 30 (≈ 66.7 µM) | 28 (≈ 62.3 µM) | 18 (≈ 40 µM) | – | – | –
COc1ccc(C(c2c(O)c3ccccc3oc2=O)N(C2CCCCC2)C2CCCCC2)cc1 (stereo not drawn) [Compound 4f, 3-((Dicyclohexylamino)(4-methoxyphenyl)methyl)-4-hydroxy-2H-chromen-2-one] | 55 (≈ 119 µM) | 64 (≈ 139 µM) | 58 (≈ 126 µM) | 133 to 135 | 22 (≈ 47.7 µM) | 20 (≈ 43.3 µM) | 39 (≈ 84.5 µM) | 44 (≈ 95.3 µM) | 57 (≈ 123 µM) | 43 (≈ 93.2 µM) | 20 (≈ 43.3 µM) | – | – | –
COc1ccc(C(c2c(O)c3ccccc3oc2=O)N(C2CCCCC2)C2CCCCC2)cc1OC (stereo not drawn) [Compound 4g, 3-((Dicyclohexylamino)(3,4-dimethoxyphenyl)methyl)-4-hydroxy-2H-chromen-2-one] | 62 (≈ 126 µM) | 62 (≈ 126 µM) | 60 (≈ 122 µM) | 138 to 140 | 20 (≈ 40.7 µM) | 24 (≈ 48.8 µM) | 35 (≈ 71.2 µM) | 52 (≈ 106 µM) | 57 (≈ 116 µM) | 50 (≈ 102 µM) | 26 (≈ 52.9 µM) | – | – | –

Now from value to compound:

MIC [1] [µg/mL] | MIC [2] [µg/mL] | MIC [3] [µg/mL] | melting point [°C] | MIC [4] [µg/mL] | MIC [5] [µg/mL] | MIC [6] [µg/mL] | MIC [7] [µg/mL] | MIC [8] [µg/mL] | MIC [9] [µg/mL] | MIC [10] [µg/mL] | MIC Staphylococcus aureus [1] [µg/mL] | MIC Escherichia coli [2] [µg/mL] | MIC Bacillus subtilis [3] [µg/mL] | SMILES
50 (≈ 143 µM) | 50 (≈ 143 µM) | 50 (≈ 143 µM) | – | – | – | – | – | – | – | – | – | – | – | CC1(C)S[C@@H]2[C@H](NC(=O)[C@H](N)c3ccccc3)C(=O)N2[C@H]1C(=O)O [Ampicillin, reference compound]
50 (≈ 99.9 µM) | 50 (≈ 99.9 µM) | 48 (≈ 95.9 µM) | 126 to 128 | 18 (≈ 36 µM) | 15 (≈ 30 µM) | 35 (≈ 69.9 µM) | 28 (≈ 55.9 µM) | 28 (≈ 55.9 µM) | 30 (≈ 59.9 µM) | 14 (≈ 28 µM) | 50 (≈ 99.9 µM) | 50 (≈ 99.9 µM) | 48 (≈ 95.9 µM) | O=c1oc2ccccc2c(O)c1C(c1c(Cl)cccc1Cl)N(C1CCCCC1)C1CCCCC1 (stereo not drawn) [Compound 4c, 3-((2,6-Dichlorophenyl)(dicyclohexylamino)methyl)-4-hydroxy-2H-chromen-2-one]
